Measured values reported in patent US20220265769A1, “COMPOSITIONS AND METHODS OF TREATMENT FOR BREAST CANCER INVOLVING A NOVEL CAPER?-MLL1 COMPLEX” (Geisinger Health, priority 2019, published 2022).

Assays:
[1] = system: breast cancer cell subtypes; assay: Total cell number and viability of an array of breast cancer cell subtypes treated with synthetic RRM3-derived peptides; type: cell-based, human; conditions: synthetic peptides at 5 μM; for proliferation (total cell number) of breast cancer cell subtypes: 72 hours
Experimental: FIG. 10. RRM3-derived CPPs disrupts growth of multiple breast cancer cell subtypes but has no effect on normal cells. A) Schematic of RRM3 amino acids 441-510 (SEQ ID NO: 13). B) Bars represent the peptide regions used to generate CPPs based on deletion results in FIG. 31. C) Amino acid sequences of synthetic peptide: Penetratin, His tag and RRM3-derived peptide. D) Representative images of crystal violet stained breast cancer cells as listed at top, taken after 72 hours days of treatment with synthetic peptides at 5 μM. E) Quantification of total cell numbers of different cell types and peptide (1-5) treatments.
FIG. 31. Key structural domains mediate the RRM3-MLL1 interaction. A) Modeling of RRM3 domain structure (amino acids: 441 to 510; SEQ ID NO: 13) using the SWISS MODEL tool and conserved domains by sequence alignment with vertebrate RRM-domaining proteins (https://www.ncbi.nlm.nih.gov/Structure/cdd/cddsrv.cgi?uid=240731) B) Top: anti-MLL1 IB to test the interaction between MLL1 and myc-tagged, deletion mutant RRM3 proteins in HEK293 cells. Bottom: IB/IP to quantitate myc-tagged proteins in lysates from HEK293 overexpressing wild type and microdeleted RRM3 domains. C) Bar graphs quantitating % viable cells after peptide treatments (peptides are numbered 1-5 as in FIG. 10) for 4 days. […] Lanes are labeled with peptide names. Arrowhead highlights signal from the entry of CPP. […] F) Anti-RBM39 immunoprecipitated samples from Neg.CPP (SEQ ID NO: 12), CPP-L491-L508 (SEQ ID NO: 24), CPP-G441-V460 (SEQ ID NO: 20), and CPP-E445-V476 (SEQ ID NO: 15) treated T47D lysates assayed by immunoblotting with antibodies against MLL1, ASH2L, RbBP5. […] G) Representative co-immunoprecipitations to show the interaction between RBM39 and its RBP interactors in Neg.CPP and CPP-E445-V476 treated T47D cell lysates. […] Immunoprecipitations and Immunoblots assaying RBM39-MLL1 interaction in neg.CPP and CPP-E445-V476 treated T47D, HCC1954, MDA-MB231 and ZR7530 cells show reduced interaction between MLL1 and RBM39 in vivo. (arrows highlight decreased interaction).
(§1) Cell counts for CPP treatments: Cells were plated in 6-well dishes and incubated with 5 μM concentration of peptides. At days noted, cells were trypsinized and counted using a hemocytometer.
Generation of synthetic peptides from the RRM3 domain: RRM3-derived peptides were commercially synthesized by Abm at purity >80%. Peptides were dissolved in 1λPBS at 1 mg/ml and used at 5 μM in low serum (1%) RPMI media.
As per UniProt, RRM3 spans amino acids (aa) 445-508 (SEQ ID NO: 34) and SWISS tool predicts 2 α helices and 4 β sheets that are conserved in vertebrate RRM-containing proteins (FIG. 31A). A series of myc-tag microdeleted constructs were designed to identify regions required for MLL1 binding. […]

[2] = system: PME cells; assay: Crystal violet assay / cell counts of primary mammary epithelial cells (PMEs) treated with cell penetrating peptides; type: cell-based, human; conditions: synthetic peptides at 5 μM
Experimental: Crystal violet assay/optical density method of cell quantitation: 5×10^5 cells were plated per well in 6-well tissue culture plates. At times indicated cells were washed with PBS and fixed for 10 minutes in a 10% formalin solution. Cells were then rinsed with distilled water and subsequently stained with 100 μl 0.1% crystal violet solution for 30 min. Stained cells were rinsed with water to remove the excess traces of the staining solution. Cell-associated crystal violet dye was extracted with 500 μl of 10% acetic acid. Aliquots were collected and optical density was measured at 590 nm wavelength. Each point on the curve shown represents 3 independent wells.
as §1
Whether recombinant RRM3 conjugated with the Penetratin cell penetrating peptide (Dupont E, et al., Methods Mol Biol. 1324:29-37 (2015)) (FIGS. 9A, B) affects growth of T47D and PME cells was tested. Equal numbers of PME and T47D cells were seeded and incubated with 5 μM peptide in media for 72 hrs. […] Compared to CPP-coupled RRM3, CPP-RRM1 and RRM3 had no effect (FIGS. 9H-N). […]

[3] = molecular target: T1, RBM39 and RNA binding proteins (RBPs) (Homo sapiens, UniProt Q14498); assay: Co-immunoprecipitation of RBM39 and its RBP interactors in peptide-treated T47D cell lysates; type: cell-based; conditions: versus Neg.CPP
T1 construct: endogenous in cells; host or cells: T47D
T1 sequence (Q14498 2-530 limits assumed): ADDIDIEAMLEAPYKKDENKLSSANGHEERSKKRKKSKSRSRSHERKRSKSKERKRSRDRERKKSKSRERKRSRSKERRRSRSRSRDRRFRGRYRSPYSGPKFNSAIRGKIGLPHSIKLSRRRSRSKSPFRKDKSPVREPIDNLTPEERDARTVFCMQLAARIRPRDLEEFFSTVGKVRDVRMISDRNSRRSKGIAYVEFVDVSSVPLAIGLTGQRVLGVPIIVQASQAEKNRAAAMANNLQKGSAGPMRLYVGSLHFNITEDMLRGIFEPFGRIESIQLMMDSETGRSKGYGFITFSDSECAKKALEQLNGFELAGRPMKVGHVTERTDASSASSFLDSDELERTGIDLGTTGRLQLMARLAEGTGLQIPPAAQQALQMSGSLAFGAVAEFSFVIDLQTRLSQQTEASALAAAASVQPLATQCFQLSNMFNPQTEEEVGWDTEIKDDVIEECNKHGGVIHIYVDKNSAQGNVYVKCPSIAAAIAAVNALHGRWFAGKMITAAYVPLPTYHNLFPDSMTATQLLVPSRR
Source text: (§2) FIG. 31. Key structural domains mediate the RRM3-MLL1 interaction. A) Modeling of RRM3 domain structure (amino acids: 441 to 510; SEQ ID NO: 13) using the SWISS MODEL tool and conserved domains by sequence alignment with vertebrate RRM-domaining proteins (https://www.ncbi.nlm.nih.gov/Structure/cdd/cddsrv.cgi?uid=240731) B) Top: anti-MLL1 IB to test the interaction between MLL1 and myc-tagged, deletion mutant RRM3 proteins in HEK293 cells. Bottom: IB/IP to quantitate myc-tagged proteins in lysates from HEK293 overexpressing wild type and microdeleted RRM3 domains. C) Bar graphs quantitating % viable cells after peptide treatments (peptides are numbered 1-5 as in FIG. 10) for 4 days. […] Lanes are labeled with peptide names. Arrowhead highlights signal from the entry of CPP. […] F) Anti-RBM39 immunoprecipitated samples from Neg.CPP (SEQ ID NO: 12), CPP-L491-L508 (SEQ ID NO: 24), CPP-G441-V460 (SEQ ID NO: 20), and CPP-E445-V476 (SEQ ID NO: 15) treated T47D lysates assayed by immunoblotting with antibodies against MLL1, ASH2L, RbBP5. […] G) Representative co-immunoprecipitations to show the interaction between RBM39 and its RBP interactors in Neg.CPP and CPP-E445-V476 treated T47D cell lysates. […]

[4] = molecular target: T2, RBM39 (CAPERα)/MLL1 complex (Homo sapiens, UniProt Q03164); assay: Anti-RBM39 co-immunoprecipitation of MLL1 complex members from peptide-treated breast cancer cell lysates; type: cell-based
T2 construct: endogenous in cells; lines from ATCC
T2 sequence (Q03164 1-2718 limits assumed): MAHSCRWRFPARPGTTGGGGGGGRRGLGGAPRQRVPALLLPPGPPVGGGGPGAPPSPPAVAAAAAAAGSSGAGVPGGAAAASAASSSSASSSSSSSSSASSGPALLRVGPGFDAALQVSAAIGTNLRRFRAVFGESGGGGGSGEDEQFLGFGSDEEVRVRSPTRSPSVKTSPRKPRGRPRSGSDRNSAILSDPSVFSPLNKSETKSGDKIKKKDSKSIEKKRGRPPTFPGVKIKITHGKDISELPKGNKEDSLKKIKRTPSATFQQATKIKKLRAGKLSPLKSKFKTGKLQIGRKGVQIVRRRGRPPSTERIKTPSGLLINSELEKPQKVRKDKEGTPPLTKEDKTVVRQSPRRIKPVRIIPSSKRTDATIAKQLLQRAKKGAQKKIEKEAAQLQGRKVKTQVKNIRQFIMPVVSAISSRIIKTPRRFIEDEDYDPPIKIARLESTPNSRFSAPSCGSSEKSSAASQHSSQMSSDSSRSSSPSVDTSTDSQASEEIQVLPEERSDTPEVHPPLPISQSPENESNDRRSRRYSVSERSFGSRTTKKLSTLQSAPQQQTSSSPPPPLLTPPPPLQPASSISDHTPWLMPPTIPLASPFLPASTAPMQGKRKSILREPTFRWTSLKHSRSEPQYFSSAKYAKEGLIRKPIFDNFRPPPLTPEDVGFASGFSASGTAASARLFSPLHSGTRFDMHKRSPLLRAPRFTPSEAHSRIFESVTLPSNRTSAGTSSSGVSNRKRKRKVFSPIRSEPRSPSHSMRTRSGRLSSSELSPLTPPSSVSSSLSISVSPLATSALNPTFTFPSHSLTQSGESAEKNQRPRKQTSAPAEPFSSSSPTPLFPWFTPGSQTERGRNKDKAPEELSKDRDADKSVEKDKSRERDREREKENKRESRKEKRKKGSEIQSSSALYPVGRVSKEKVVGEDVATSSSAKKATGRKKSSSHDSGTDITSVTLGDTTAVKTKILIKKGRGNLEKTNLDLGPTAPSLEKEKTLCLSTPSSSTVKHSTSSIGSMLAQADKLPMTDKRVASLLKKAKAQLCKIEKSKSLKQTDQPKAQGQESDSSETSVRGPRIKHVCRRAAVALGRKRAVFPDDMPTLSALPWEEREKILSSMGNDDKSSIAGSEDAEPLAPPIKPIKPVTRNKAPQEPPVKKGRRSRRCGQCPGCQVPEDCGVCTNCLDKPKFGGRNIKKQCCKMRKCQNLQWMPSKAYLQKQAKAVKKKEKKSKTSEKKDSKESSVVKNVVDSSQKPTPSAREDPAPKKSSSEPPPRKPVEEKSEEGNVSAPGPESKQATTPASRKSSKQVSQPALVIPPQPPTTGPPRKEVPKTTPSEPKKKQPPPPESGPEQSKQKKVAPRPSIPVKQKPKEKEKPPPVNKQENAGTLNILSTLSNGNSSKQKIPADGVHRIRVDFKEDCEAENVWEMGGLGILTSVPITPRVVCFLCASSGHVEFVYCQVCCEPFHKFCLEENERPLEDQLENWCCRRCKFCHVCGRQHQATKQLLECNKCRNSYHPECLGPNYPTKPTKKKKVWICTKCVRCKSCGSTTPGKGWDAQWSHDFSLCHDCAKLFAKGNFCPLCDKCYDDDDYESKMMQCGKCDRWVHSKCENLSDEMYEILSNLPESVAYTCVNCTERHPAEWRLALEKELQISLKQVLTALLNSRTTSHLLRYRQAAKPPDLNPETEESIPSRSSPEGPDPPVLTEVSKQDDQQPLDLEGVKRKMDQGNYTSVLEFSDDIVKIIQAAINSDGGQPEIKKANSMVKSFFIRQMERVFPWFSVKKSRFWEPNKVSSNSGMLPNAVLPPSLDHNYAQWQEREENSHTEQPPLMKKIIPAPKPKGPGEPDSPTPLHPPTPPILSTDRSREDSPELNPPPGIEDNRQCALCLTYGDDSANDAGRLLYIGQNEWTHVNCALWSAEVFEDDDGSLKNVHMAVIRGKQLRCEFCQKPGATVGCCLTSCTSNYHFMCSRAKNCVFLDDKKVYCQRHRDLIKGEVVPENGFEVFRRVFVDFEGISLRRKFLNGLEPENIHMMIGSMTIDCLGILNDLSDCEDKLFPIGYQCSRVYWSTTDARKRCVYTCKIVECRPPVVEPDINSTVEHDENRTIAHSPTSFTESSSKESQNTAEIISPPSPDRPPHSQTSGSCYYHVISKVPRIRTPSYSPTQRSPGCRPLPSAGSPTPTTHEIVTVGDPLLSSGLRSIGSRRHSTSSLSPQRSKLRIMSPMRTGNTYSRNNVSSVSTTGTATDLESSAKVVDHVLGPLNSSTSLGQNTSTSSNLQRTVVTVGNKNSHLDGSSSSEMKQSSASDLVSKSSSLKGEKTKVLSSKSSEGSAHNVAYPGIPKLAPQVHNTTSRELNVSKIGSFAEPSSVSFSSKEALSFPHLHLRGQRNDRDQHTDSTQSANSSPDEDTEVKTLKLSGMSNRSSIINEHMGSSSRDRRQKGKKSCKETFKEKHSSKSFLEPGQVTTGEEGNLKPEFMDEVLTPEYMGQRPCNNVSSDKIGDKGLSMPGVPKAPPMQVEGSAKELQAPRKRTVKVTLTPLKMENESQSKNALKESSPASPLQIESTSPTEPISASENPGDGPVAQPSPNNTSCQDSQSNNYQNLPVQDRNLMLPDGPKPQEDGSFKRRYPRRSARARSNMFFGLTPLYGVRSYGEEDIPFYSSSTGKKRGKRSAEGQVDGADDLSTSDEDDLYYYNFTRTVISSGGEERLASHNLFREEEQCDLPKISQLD
T2 sequence (Q03164 2719-3969 limits assumed): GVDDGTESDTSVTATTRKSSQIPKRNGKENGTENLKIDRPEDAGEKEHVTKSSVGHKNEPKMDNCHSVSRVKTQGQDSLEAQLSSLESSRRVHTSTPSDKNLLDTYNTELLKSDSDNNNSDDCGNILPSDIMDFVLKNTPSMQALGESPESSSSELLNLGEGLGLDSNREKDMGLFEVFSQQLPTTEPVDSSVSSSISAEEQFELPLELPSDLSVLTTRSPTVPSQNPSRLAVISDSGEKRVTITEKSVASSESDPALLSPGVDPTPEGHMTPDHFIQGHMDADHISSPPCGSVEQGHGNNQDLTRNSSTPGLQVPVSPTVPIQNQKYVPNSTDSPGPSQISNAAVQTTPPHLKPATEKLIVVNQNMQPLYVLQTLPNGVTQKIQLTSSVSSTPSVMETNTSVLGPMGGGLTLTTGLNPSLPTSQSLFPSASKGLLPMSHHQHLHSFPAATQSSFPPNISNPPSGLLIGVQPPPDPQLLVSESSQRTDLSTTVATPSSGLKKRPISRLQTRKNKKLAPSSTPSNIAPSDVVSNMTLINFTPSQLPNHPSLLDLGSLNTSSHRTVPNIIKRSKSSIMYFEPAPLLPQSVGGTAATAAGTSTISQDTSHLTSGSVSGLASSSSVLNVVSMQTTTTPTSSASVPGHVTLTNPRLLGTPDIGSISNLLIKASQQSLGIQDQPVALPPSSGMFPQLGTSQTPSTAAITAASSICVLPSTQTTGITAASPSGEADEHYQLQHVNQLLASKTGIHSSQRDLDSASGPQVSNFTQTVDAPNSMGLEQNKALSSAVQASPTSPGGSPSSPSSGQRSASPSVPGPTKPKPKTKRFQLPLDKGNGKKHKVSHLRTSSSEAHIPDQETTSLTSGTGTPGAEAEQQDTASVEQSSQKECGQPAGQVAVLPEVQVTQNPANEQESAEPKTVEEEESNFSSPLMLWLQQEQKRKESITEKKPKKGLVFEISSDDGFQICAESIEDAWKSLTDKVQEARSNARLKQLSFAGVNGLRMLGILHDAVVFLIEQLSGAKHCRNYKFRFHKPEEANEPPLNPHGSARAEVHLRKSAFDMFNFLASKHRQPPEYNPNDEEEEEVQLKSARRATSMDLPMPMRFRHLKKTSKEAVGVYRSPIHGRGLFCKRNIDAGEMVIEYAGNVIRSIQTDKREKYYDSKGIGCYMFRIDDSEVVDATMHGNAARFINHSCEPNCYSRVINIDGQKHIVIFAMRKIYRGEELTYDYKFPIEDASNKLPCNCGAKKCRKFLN
T2 sequence (Q15291 whole entry partner): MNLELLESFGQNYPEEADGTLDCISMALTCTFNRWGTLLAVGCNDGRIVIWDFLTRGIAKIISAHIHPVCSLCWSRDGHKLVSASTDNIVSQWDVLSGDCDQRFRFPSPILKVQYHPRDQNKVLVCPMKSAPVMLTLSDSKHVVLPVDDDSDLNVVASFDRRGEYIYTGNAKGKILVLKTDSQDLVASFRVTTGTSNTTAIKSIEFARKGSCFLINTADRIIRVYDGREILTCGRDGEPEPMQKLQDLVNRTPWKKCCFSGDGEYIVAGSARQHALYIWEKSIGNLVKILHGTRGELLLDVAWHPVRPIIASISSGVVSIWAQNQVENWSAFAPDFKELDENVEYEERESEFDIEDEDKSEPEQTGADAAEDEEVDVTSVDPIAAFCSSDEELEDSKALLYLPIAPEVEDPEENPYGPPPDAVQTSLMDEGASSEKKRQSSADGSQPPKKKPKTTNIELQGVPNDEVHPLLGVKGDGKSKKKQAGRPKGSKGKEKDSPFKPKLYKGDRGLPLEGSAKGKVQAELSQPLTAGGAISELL
Source text: as §2

Substance	proliferation (total cell number) of breast cancer cell subtypes [1]	viability (% viable cells) of breast cancer cell subtypes ([1]; 4 days)	effect on PMEs / normal cells (proliferation and viability) [2]	interaction of RBM39 with RBPs [3]	endogenous interaction between RBM39 and MLL1 ([4]; T47D, HCC1954, MDA-MB231 and ZR7530 cells, versus neg.CPP)	interaction between RBM39 and MLL1 complex members (MLL1, ASH2L, RbBP5) ([4]; treated T47D lysates, anti-RBM39 immunoprecipitation)
CPP-E445-V476: synthetic RRM3-derived peptide E445-V476 with Penetratin and His tags (SEQ ID NO: 15; with His tag SEQ ID NO: 14) (RQIKIWFQNRRMKWKKGGEIKDDVIEECNKHGGVIHIYVDKNSAQGNVYVHHHHHH; RRM3-derived synthetic sequence)	pronounced effects on all subtypes	pronounced effects on all subtypes	no effect	did not affect the interaction	disrupts the endogenous interaction	reduced the interaction
CPP-G441-V460: synthetic RRM3-derived peptide G441-V460 with Penetratin and His tags (SEQ ID NO: 20; with His tag SEQ ID NO: 21) (RQIKIWFQNRRMKWKKGGGWDTEIKDDVIEECNKHGGVHHHHHH; RRM3-derived synthetic sequence)	affected some Luminal and HER2+ subtypes	–	–	–	–	–
RRM3 E445-V476: RRM3 E445-V476 peptide in the absence of Penetratin, negative control (SEQ ID NO: 2) (EIKDDVIEECNKHGGVIHIYVDKNSAQGNVYV; listed as Homo sapiens)	no effect	–	–	–	–	–
